We go through 3 substances from patent publication US20100075919A1, “COMPOSITIONS COMPRISING ALKYLDIMONIUM HYDROXYPROPYL ALKYLGLUCOSIDES” (priority 2008, published 2010).

Assay [1] has as its system three bacterium and two fungal strains. In words: Testing of commercially available alkyldimonium hydroxypropyl alkylglucosides for biocidal efficacy in aqueous buffered borate solution. In kind it is cell-based.
Assay [2] has as its system A. Niger. Kind of assay: Preservative efficacy response study against A. Niger in borate-buffered solution. In kind it is cell-based. Particulars: S-1218 in the solutions with or without PHMB. The source says:
A “preservative-effective amount” is defined as a sufficient amount of alkyldimonium hydroxypropyl alkylglucoside of general formula I or general formula II in the formulation to reduce the cell population by two log orders after 7 days of the five following microorganisms, Staphylococcus aureus, Pseudomonas aeruginosa, Eschrechia coli, Candida albicans and Aspergillus niger, or that which will prevent the growth of fungal bioburden by ±0.5 log.
Data obtained from a preservative efficacy response study of S-1218 with or without the stated concentrations of PHMB in borate-buffered solution containing 0.85 wt. % sodium borate, 0.06 wt. % boric acid and 0.26 wt. % sodium chloride is provided in Tables 3A and 3B. The study also included a response against S. Aureus, P. Aeruginosa, E. Coli, and C. Albicans.
Data obtained from a preservative efficacy response study of select alkyldimonium hydroxypropyl alkylglucosides of general formula I or general formula II in borate-buffered solution containing 0.85 wt. % sodium borate, 0.06 wt. % boric acid and 0.26 wt. % sodium chloride is provided in Table 4. Example 9 includes 0.2 wt. % S-1218; Example 10 includes 0.2 wt. % S-1010P; Example 11 includes 0.2 wt. % L-1210P; and Example 12 includes 0.2 wt. % S-1010. The study also included a response against S. Aureus, P. Aeruginosa, E. Coli, and C. Albicans.

Take “stearyl dimonium hydropropyl laurylglucoside”: the “biocidal efficacy (in words)” value in assay [1] was “relatively high increase in biocidal efficacy”.

Take “stearyldimonium hydropropyl decylglucoside”: the “biocidal efficacy (in words)” value in assay [1] is “relatively high increase in biocidal efficacy”. On to “stearyldimonium hydroxypropyl laurylglucosides chloride [Example S-1218]”, for which the “biocidal control of A. Niger (in words)” value in assay [2] is listed as “significant biocidal control”.
